Measurements as given in ChEMBL document CHEMBL5715954, “Silencing c-Myc translation as a therapeutic strategy through targeting PI3Kδ and CK1ε in hematological malignancies” (Blood, 2017).

How the values were obtained:
Parameters in all cases: scale not given: the % may be the effect or the level left
[1] = target: Activated CDC42 kinase 1 (Homo sapiens) (UniProt Q07912); experiment: Inhibition of human ACK1 assessed as enzyme activity at 1 uM using EAIYAAPFAKKK as substrate preincubated for 20 mins followed by [gamma-33P]-ATP addition and measured after 120 mins by radiometric Hot-SpotSM Kinase assay relative to control
Sequence of Activated CDC42 kinase 1 (Homo sapiens) (Q07912 whole entry, looked up): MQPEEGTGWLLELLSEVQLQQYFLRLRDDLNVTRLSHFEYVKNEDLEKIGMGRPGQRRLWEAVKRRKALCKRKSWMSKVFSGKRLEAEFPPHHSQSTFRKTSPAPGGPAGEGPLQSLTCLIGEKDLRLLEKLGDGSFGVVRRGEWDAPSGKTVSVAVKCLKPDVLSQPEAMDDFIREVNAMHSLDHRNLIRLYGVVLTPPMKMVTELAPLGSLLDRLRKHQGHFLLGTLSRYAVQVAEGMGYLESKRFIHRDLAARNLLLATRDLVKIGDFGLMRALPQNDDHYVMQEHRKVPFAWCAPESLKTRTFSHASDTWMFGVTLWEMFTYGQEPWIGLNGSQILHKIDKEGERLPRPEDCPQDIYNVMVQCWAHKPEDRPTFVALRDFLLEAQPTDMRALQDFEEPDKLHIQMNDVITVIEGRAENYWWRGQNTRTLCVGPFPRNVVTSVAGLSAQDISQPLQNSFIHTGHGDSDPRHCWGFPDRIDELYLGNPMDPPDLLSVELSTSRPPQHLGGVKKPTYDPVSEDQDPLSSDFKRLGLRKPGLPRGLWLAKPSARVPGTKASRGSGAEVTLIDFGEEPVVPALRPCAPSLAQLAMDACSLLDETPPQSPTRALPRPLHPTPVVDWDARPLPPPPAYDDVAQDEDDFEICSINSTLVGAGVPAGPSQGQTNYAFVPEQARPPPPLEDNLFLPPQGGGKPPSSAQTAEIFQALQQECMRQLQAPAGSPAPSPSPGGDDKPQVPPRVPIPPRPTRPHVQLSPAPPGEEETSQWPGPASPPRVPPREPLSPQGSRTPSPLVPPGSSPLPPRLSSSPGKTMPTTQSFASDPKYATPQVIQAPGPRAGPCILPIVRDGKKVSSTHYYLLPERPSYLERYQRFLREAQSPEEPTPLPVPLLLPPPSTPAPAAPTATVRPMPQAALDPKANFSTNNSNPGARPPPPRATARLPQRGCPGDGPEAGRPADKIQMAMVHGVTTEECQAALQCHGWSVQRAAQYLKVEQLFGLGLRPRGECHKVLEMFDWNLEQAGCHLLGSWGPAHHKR

[2] = target: Aurora kinase B (Homo sapiens) (UniProt Q96GD4); experiment: Inhibition of human Aurora B assessed as enzyme activity at 1 uM using H-LRRASLG as substrate preincubated for 20 mins followed by [gamma-33P]-ATP addition and measured after 120 mins by radiometric Hot-SpotSM Kinase assay relative to control
Sequence of Aurora kinase B (Homo sapiens) (Q96GD4 whole entry): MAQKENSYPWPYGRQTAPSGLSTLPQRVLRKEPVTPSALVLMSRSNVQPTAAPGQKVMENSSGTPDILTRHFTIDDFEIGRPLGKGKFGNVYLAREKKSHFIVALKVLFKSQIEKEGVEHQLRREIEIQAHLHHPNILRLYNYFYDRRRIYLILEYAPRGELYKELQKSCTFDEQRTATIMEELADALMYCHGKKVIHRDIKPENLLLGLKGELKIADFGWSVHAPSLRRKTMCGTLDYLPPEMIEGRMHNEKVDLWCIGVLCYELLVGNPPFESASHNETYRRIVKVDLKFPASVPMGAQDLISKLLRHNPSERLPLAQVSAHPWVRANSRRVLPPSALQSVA

[3] = target: T1, Serine/threonine-protein kinase DCLK2 (Homo sapiens) (UniProt Q8N568); experiment: Inhibition of human DCAMKL2 assessed as enzyme activity at 1 uM using KKLNRTLSFAEPG as substrate preincubated for 20 mins followed by [gamma-33P]-ATP addition and measured after 120 mins by radiometric Hot-SpotSM Kinase assay relative to control
T1 sequence (whole entry): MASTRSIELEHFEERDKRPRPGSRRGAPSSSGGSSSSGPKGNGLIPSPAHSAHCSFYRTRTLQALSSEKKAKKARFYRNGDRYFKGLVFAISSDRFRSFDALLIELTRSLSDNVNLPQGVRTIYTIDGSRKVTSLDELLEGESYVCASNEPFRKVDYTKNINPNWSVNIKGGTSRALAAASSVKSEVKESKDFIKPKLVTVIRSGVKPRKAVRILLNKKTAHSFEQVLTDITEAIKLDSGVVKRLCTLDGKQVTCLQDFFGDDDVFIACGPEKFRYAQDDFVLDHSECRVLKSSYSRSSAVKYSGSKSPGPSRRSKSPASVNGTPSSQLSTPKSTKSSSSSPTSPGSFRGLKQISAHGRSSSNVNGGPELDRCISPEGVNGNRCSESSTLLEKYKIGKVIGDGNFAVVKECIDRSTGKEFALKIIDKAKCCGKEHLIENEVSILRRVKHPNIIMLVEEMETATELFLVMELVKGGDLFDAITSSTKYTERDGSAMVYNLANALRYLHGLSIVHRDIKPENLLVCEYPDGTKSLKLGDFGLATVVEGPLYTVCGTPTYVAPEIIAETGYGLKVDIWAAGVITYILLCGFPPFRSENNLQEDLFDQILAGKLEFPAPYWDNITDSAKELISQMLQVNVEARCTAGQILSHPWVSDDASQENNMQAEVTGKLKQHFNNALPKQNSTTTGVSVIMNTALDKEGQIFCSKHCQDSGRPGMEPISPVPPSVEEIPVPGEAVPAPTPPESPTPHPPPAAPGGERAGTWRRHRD

[4] = target: T2, Mitogen-activated protein kinase kinase kinase 12 (Homo sapiens) (UniProt Q12852); experiment: Inhibition of human DLK/MAP3K12 assessed as enzyme activity at 1 uM using myelin basic protein as substrate preincubated for 20 mins followed by [gamma-33P]-ATP addition and measured after 120 mins by radiometric Hot-SpotSM Kinase assay relative to control
T2 sequence (whole entry): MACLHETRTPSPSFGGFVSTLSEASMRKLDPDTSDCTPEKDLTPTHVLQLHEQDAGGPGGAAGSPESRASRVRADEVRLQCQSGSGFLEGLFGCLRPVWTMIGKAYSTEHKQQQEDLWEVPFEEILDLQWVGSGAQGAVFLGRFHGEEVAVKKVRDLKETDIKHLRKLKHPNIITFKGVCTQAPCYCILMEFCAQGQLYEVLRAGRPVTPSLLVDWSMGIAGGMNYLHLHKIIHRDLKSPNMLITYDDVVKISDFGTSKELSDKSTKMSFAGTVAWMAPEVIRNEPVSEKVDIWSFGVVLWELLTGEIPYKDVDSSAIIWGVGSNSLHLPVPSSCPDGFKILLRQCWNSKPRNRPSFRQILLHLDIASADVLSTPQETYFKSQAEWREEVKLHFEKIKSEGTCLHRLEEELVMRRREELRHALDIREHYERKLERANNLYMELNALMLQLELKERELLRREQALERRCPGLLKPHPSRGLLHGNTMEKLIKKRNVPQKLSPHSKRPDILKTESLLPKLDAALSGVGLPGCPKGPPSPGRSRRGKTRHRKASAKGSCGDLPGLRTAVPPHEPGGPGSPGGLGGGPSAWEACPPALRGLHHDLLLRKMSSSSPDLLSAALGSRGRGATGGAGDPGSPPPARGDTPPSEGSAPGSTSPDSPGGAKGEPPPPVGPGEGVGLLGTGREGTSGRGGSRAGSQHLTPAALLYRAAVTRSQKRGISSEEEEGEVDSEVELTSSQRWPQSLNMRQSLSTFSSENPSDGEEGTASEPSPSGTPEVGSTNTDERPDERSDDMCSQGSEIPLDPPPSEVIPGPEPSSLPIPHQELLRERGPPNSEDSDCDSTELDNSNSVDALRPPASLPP

[5] = target: MAP kinase-activated protein kinase 3 (Homo sapiens) (UniProt Q16644); experiment: Inhibition of human MAPKAPK3 assessed as enzyme activity at 1 uM using KKLNRTLSVA as substrate preincubated for 20 mins followed by [gamma-33P]-ATP addition and measured after 120 mins by radiometric Hot-SpotSM Kinase assay relative to control
Sequence of MAP kinase-activated protein kinase 3 (Homo sapiens) (Q16644 whole entry, looked up): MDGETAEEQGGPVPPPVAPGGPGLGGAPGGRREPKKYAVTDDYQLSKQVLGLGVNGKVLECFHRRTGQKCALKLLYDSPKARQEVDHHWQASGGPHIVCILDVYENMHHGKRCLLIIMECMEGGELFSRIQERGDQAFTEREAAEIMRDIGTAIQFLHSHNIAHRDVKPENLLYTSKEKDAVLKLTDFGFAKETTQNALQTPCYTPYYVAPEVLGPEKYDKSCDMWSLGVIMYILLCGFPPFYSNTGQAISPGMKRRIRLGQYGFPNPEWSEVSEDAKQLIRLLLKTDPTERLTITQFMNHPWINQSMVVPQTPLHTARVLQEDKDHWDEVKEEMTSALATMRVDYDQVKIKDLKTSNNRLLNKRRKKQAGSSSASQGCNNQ

Row | Structure (SMILES) | Activity [1] | Activity [2] | Activity [3] | Activity [4] | Activity [5]
1 | CC[C@H](Nc1ncnc2[nH]cnc12)c1nc2cccc(F)c2c(=O)n1-c1ccccc1 | 90.7% | 95.6% | 94.7% | 110% | 97.3%
2 | CC(C)Oc1ccc(-c2nn([C@@H](C)c3oc4ccc(F)cc4c(=O)c3-c3cccc(F)c3)c3ncnc(N)c23)cc1F [UMBRALISIB] | 93.6% | 97.2% | 94.7% | 127% | 90.6%
3 | C[C@H](Nc1ncnc2nc[nH]c12)c1cc2cccc(Cl)c2c(=O)n1-c1ccccc1 | 95.5% | 95.6% | 94.1% | 107% | 95.8%
